27 molecules from ChEMBL document CHEMBL4476867, “Hydroxy formamide derivatives and their use” (2016) can be followed below.

Holding throughout (format): cell-based
For assay [1], the target named is T1, Bone morphogenetic protein 1 (Homo sapiens, UniProt P13497).
T1 sequence (P13497 whole entry): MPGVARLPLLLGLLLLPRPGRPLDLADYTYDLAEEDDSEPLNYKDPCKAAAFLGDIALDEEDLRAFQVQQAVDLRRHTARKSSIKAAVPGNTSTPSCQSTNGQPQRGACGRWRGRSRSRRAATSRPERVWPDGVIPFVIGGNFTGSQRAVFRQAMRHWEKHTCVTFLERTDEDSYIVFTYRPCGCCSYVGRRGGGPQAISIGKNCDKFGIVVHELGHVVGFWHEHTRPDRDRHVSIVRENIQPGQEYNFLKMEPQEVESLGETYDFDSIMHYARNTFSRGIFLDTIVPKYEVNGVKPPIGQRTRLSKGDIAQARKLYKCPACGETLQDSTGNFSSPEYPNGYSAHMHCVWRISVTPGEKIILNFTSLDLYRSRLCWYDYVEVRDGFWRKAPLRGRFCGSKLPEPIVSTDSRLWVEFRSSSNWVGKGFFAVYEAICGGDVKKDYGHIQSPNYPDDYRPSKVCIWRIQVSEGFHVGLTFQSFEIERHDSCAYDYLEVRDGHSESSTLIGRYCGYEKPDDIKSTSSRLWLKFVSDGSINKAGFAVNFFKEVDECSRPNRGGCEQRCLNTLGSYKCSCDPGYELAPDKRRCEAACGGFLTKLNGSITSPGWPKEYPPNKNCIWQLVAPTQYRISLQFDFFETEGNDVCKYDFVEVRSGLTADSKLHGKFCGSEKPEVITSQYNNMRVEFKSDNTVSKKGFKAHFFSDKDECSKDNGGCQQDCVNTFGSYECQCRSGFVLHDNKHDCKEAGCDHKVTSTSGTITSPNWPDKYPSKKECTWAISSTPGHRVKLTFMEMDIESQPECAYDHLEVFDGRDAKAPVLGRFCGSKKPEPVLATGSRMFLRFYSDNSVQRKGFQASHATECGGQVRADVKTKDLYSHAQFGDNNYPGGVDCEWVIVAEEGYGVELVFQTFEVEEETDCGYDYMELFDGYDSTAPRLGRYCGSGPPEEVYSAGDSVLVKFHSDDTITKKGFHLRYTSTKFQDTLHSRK
Put plainly: Inhibition of C-terminal FLAG-6x-His epitope tagged and N-terminal human RAGE signal sequence tagged human BMP1 (23 to 721 amino acids) expressed in CHO-E1 cells pre-incubated for 10 mins before promyostatin peptide substrate addition and measured after 60 mins using 0.5 nM BMP1 by FRET based assay.

In another assay the target is T2, Tolloid-like protein 2 (Homo sapiens, UniProt Q9Y6L7).
T2 sequence (Q9Y6L7 whole entry): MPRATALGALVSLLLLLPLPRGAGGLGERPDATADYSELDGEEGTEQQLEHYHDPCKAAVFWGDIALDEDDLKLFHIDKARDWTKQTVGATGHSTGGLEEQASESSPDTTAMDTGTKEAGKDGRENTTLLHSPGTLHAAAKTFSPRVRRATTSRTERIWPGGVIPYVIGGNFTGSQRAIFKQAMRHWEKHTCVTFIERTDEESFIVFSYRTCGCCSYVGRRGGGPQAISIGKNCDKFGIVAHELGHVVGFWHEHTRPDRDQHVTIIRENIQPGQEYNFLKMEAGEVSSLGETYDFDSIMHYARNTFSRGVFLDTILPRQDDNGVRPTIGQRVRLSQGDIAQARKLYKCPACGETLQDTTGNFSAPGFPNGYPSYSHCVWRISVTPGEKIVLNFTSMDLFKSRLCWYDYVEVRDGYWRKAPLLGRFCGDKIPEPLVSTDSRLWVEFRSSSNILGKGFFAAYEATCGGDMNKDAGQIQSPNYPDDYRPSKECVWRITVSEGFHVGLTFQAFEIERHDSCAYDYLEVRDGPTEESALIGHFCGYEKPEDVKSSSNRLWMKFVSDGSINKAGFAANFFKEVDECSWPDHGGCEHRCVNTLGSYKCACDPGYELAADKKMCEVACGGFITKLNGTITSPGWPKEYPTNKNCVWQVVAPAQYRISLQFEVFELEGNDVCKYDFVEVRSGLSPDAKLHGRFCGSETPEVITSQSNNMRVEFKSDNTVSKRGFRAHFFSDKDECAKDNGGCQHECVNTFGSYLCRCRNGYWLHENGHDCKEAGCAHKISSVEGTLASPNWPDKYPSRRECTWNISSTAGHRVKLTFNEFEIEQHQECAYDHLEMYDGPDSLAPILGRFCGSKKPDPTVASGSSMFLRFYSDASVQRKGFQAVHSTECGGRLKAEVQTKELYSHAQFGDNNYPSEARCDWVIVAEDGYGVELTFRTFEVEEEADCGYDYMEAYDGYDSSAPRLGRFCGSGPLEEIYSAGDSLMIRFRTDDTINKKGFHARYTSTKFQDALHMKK
The assay can be described thus: Inhibition of C-terminal Avi-6x-His epitope tagged and N-terminal human RAGE signal sequence tagged recombinant human TLL2 (26 to 1015 amino acids) expressed in CHOE1A cells incubated for 60 mins with promyostatin peptide substrate by FRET based assay.

Assay [2] addresses T1, Bone morphogenetic protein 1. Put plainly: Inhibition of C-terminal FLAG-6x-His epitope tagged and N-terminal human RAGE signal sequence tagged human BMP1 (23 to 721 amino acids) expressed in CHO-E1 cells pre-incubated for 10 mins before promyostatin peptide substrate addition and measured after 30 mins using 50 nM BMP1 by FRET based assay.
The next assay addresses Tolloid-like protein 1 (Homo sapiens, UniProt O43897, I156V/N221S/V284A). The assay can be described thus: Inhibition of recombinant human TLL1 I156V/N221S/V284A mutant expressed in CHOE1A cells pre-incubated for 10 mins before promyostatin peptide substrate addition and measured after 60 mins by FRET based assay.

Sequence of Tolloid-like protein 1 (O43897 148-1013 I156V/N221S/V284A limits assumed): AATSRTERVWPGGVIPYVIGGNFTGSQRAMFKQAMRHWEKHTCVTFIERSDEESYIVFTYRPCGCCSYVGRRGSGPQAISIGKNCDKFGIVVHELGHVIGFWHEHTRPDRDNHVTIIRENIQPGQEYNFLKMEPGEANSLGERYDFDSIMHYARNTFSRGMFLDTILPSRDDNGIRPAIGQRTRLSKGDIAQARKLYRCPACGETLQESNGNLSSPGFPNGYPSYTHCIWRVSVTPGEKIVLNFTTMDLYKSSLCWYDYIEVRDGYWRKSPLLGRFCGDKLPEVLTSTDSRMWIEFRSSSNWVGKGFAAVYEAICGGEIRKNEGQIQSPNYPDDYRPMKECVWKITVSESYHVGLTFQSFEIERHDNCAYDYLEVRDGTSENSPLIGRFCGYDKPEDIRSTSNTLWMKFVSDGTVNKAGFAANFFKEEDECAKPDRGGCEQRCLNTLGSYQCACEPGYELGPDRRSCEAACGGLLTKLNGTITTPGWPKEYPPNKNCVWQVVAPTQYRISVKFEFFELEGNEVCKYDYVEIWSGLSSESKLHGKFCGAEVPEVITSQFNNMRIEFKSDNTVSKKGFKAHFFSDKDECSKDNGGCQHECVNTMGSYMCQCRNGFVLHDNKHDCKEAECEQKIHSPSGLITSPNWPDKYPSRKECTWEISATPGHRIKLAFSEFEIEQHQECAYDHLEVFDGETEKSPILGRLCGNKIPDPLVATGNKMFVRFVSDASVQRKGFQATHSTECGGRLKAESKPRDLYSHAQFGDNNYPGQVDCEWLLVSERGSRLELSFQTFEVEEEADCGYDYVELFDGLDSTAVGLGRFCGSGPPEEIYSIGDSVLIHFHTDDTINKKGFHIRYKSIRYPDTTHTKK

On to `CCCCC[C@H](CN(O)C=O)C(=O)NCNC(=O)c1ccc(-c2cccc(OC)c2)o1`, for which the IC50 (commonly the concentration needed to halve the response being measured) is less than 0.126 µM in assay [1], less than 0.794 µM on Tolloid-like protein 2, less than 0.2 µM in assay [2] and less than 0.398 µM at Tolloid-like protein 1.

Regarding `CCCCC[C@H](CN(O)C=O)C(=O)NCNC(=O)c1ccc(-c2ccccc2OC)o1`, the IC50 in assay [1] was less than 0.126 µM; at Tolloid-like protein 2 it was less than 0.794 µM; in assay [2] it was less than 0.2 µM; on Tolloid-like protein 1, less than 0.398 µM.

For `CCCCC[C@H](CN(O)C=O)C(=O)NCNC(=O)c1ccc(-c2ccc(F)c(OC)c2)o1`, the IC50 in assay [1] is less than 0.126 µM; at Tolloid-like protein 2 it was less than 0.794 µM; in assay [2] it was less than 0.2 µM; on Tolloid-like protein 1, less than 0.398 µM.

On to `CCCCC[C@H](CN(O)C=O)C(=O)NCNC(=O)c1ccc(-c2cccc(C(=O)OC(C)(C)C)c2)o1`, for which the IC50 in assay [1] is less than 0.126 µM; at Tolloid-like protein 2, less than 0.794 µM; in assay [2], less than 0.2 µM; on Tolloid-like protein 1, less than 0.398 µM.

For `O=CN(O)C[C@@H](CCc1ccccc1)C(=O)NCNC(=O)c1ccc(-c2ccccc2)o1`, the IC50 is less than 0.126 µM in assay [1], less than 0.794 µM at Tolloid-like protein 2, less than 0.2 µM in assay [2] and less than 0.398 µM on Tolloid-like protein 1.

Take `CCCCC[C@H](CN(O)C=O)C(=O)NCNC(=O)c1ccc(-c2cccc(P(C)(=O)OCC)c2)o1` (some centres undefined): the IC50 in assay [1] was less than 0.126 µM; at Tolloid-like protein 2 it was less than 0.794 µM; in assay [2], less than 0.2 µM; at Tolloid-like protein 1 it was less than 0.398 µM.

On to `CCCCC[C@H](CN(O)C=O)C(=O)NCNC(=O)c1ccc(-c2cccc(S(=O)(=O)N(C)C)c2)o1`, for which the IC50 in assay [1] is less than 0.126 µM; on Tolloid-like protein 2, less than 0.794 µM; in assay [2], less than 0.2 µM; at Tolloid-like protein 1 it was less than 0.398 µM.

`CCCCC[C@@H](C(=O)NCNC(=O)c1ccc(-c2cncc(C(=O)O)c2)o1)[C@@H](CC)N(O)C=O`: the IC50 in assay [1] was less than 0.126 µM; on Tolloid-like protein 2, less than 0.794 µM; in assay [2], less than 0.2 µM; on Tolloid-like protein 1, less than 0.398 µM.

As to `CCCCC[C@H](CN(O)C=O)C(=O)NCNC(=O)c1ccc(-c2ccc(OC)c(C(=O)O)c2)o1`, the IC50 was less than 0.126 µM in assay [1], less than 0.794 µM on Tolloid-like protein 2, less than 0.2 µM in assay [2] and less than 0.398 µM at Tolloid-like protein 1.

For `CS(=O)(=O)c1cccc(-c2ccc(C(=O)NCNC(=O)[C@H](CCc3ccccc3)CN(O)C=O)o2)c1`, the IC50 in assay [1] was less than 0.126 µM; at Tolloid-like protein 2 it was less than 0.794 µM; in assay [2] it was less than 0.2 µM; on Tolloid-like protein 1, less than 0.398 µM.

Turning to `CCCCC[C@H](CN(O)C=O)C(=O)NCNC(=O)c1ccc(-c2ccc(C#N)cc2)o1`, the IC50 in assay [1] was less than 0.126 µM; on Tolloid-like protein 2, less than 0.794 µM; in assay [2], less than 0.2 µM; on Tolloid-like protein 1 it was less than 0.398 µM.

For `CCCCC[C@@H](C(=O)NCNC(=O)c1ccc(-c2cc(OCC)cc(P(=O)(O)O)c2)o1)[C@@H](CC)N(O)C=O.NC(CO)(CO)CO`, the pIC50 (commonly −log10 of the IC50, conventionally taken in molar units) in assay [1] was more than 6.9.

As to `CCCCC[C@H](CN(O)C=O)C(=O)NCNC(=O)c1ccc(-c2ccccc2C(=O)OC)o1`, the IC50 in assay [1] is less than 0.126 µM; on Tolloid-like protein 2, less than 0.794 µM; in assay [2] it was less than 0.2 µM; on Tolloid-like protein 1, less than 0.398 µM.

In the case of `CCCCC[C@H](CN(O)C=O)C(=O)NCNC(=O)c1ccc(-c2cccc(C#N)c2)o1`, the IC50 is less than 0.126 µM in assay [1], less than 0.794 µM at Tolloid-like protein 2, less than 0.2 µM in assay [2] and less than 0.398 µM at Tolloid-like protein 1.

`CCCCC[C@H](CN(O)C=O)C(=O)NCNC(=O)c1ccc(-c2ccc(C(=O)OC)cc2)o1`: the IC50 in assay [1] was less than 0.126 µM; at Tolloid-like protein 2, less than 0.794 µM; in assay [2] it was less than 0.2 µM; on Tolloid-like protein 1 it was less than 0.398 µM.

Regarding `CCOc1cc(C(=O)O)cc(-c2ccc(C(=O)NCNC(=O)CCN(O)C=O)o2)c1`, the IC50 is less than 0.126 µM in assay [1], less than 0.2 µM in assay [2] and less than 0.398 µM on Tolloid-like protein 1.

`CCCCC[C@H](CN(O)C=O)C(=O)NCNC(=O)c1ccc(-c2cncc(OC)c2)o1`: the IC50 was less than 0.126 µM in assay [1], less than 0.794 µM on Tolloid-like protein 2, less than 0.2 µM in assay [2] and less than 0.398 µM at Tolloid-like protein 1.

On to `CCCCC[C@H](CN(O)C=O)C(=O)NCNC(=O)c1ccc(-c2cccc(OCCN3CCCC3)c2)o1`, for which the IC50 is less than 0.126 µM in assay [1], less than 0.794 µM at Tolloid-like protein 2, less than 0.2 µM in assay [2] and less than 0.398 µM on Tolloid-like protein 1.

As to `CCCCC[C@H](CN(O)C=O)C(=O)NCNC(=O)c1ccc(-c2ccccc2O)o1`, the IC50 was less than 0.126 µM in assay [1], less than 0.794 µM on Tolloid-like protein 2, less than 0.2 µM in assay [2] and less than 0.398 µM at Tolloid-like protein 1.

For `O=CN(O)C[C@@H](CC1CCCC1)C(=O)NCNC(=O)c1ccc(-c2ccccc2)o1`, the IC50 is less than 0.126 µM in assay [1], less than 0.794 µM at Tolloid-like protein 2, less than 0.2 µM in assay [2] and less than 0.398 µM on Tolloid-like protein 1.

As to `CCCCC[C@@H](C(=O)NCNC(=O)c1ccc(-c2ccccc2)o1)[C@@H](CO)N(O)C=O`, the IC50 in assay [1] is less than 0.126 µM; at Tolloid-like protein 2 it was less than 0.794 µM; in assay [2], less than 0.2 µM; on Tolloid-like protein 1 it was less than 0.398 µM.

Take `O=CN(O)C[C@@H](CCCc1ccccc1)C(=O)NCNC(=O)c1ccc(-c2ccccc2)o1`: the IC50 in assay [1] was less than 0.126 µM; at Tolloid-like protein 2 it was less than 0.794 µM; in assay [2], less than 0.2 µM; on Tolloid-like protein 1, less than 0.398 µM.

Regarding `CCCCC[C@H](CN(O)C=O)C(=O)NCNC(=O)c1ccc(-c2cccc(C(=O)NC)c2)o1`, the IC50 in assay [1] is less than 0.126 µM; on Tolloid-like protein 2 it was less than 0.794 µM; in assay [2], less than 0.2 µM; at Tolloid-like protein 1, less than 0.398 µM.

As to `CCCCC[C@H](CN(O)C=O)C(=O)NCNC(=O)c1ccc(-c2ccc(C)c(C(=O)O)c2)o1`, the IC50 in assay [1] was less than 0.126 µM; at Tolloid-like protein 2, less than 0.794 µM; in assay [2], less than 0.2 µM; on Tolloid-like protein 1, less than 0.398 µM.

`CCCCC[C@H](CN(O)C=O)C(=O)NCNC(=O)c1ccc(-c2ccc3c(c2)S(=O)(=O)NC3)o1`: the IC50 in assay [1] was less than 0.126 µM; on Tolloid-like protein 2, less than 0.794 µM; in assay [2] it was less than 0.2 µM; at Tolloid-like protein 1 it was less than 0.398 µM.

For the molecule `CCCCC[C@H](CN(O)C=O)C(=O)NCNC(=O)c1ccc(-c2cccc(OC)n2)o1`, the IC50 is less than 0.126 µM in assay [1], less than 0.794 µM on Tolloid-like protein 2, less than 0.2 µM in assay [2] and less than 0.398 µM on Tolloid-like protein 1.

On to `CCCCC[C@H](CN(O)C=O)C(=O)NCNC(=O)c1ccc(-c2cccc(P(=O)(OC)OC)c2)o1`, for which the IC50 is less than 0.126 µM in assay [1], less than 0.794 µM on Tolloid-like protein 2, less than 0.2 µM in assay [2] and less than 0.398 µM on Tolloid-like protein 1.
